# Changes are numbered by the printed parent chain. Where two headings read alike, the source gives them in different places.
# Key:
# MGL = target: T1, MGL (Rattus norvegicus, UniProt Q8R431); test: 2-AG Accumulation Assay (rat brain homogenate); format: biochemical; details: compound 1 μM, percent of vehicle 2-AG accumulation
# T1 construct: one g rat brain was homogenized
# T1 sequence (Q8R431 1-303): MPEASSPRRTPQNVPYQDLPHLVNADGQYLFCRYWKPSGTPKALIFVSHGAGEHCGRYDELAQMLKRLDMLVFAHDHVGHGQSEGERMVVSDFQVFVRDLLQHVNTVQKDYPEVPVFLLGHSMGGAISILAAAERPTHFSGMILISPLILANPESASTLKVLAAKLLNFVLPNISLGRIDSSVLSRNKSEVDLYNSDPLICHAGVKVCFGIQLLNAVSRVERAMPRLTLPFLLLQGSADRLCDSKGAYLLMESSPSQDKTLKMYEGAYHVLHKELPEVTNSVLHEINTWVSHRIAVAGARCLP
# [1] = tested on: CFA-induced thermal hypersensitivity; test: CFA-Induced Paw Radiant Heat Hypersensitivity; format: in vivo; details: rat, 30 mg/kg p.o., HPβCD vehicle; for Method 1: peak % reversal: group mean values, maximum at any time point up to 180 or 300 min
# Experimental: A radiant thermal stimulus (beam of light) was then focused through the glass onto the plantar surface of each hind paw in turn. […] An initial (baseline) response latency to the thermal stimulus was recorded for each animal prior to the injection of complete Freund's adjuvant (CFA). 24 h following intraplantar CFA injection, the response latency of the animal to the thermal stimulus was then re-evaluated and compared to the animal's baseline response time. […] Immediately following the post-CFA latency assessment, the indicated test compound or vehicle was administered orally. […] More specifically: For all compounds, the % R of hypersensitivity was calculated using the mean value for groups of animals at each time point according to the following formula: % reversal=[(group treatment response−group CFA response)/(group baseline response−group CFA response)]×100 Results are given for the maximum % reversal observed for each compound at any time point tested. For some compounds, the % R of hypersensitivity was calculated separately for each animal according to the following formula: % reversal=[(individual treatment response−individual CFA response)/(individual baseline response−individual CFA response)]×100. Results are given as a mean of the maximum % reversal values calculated for each individual animal.
# [2] = target: T2, purified wild type MGL (wt-MGLL 6H-11-313) (Homo sapiens, UniProt Q99685)
# T2 sequence (Q99685 1-303): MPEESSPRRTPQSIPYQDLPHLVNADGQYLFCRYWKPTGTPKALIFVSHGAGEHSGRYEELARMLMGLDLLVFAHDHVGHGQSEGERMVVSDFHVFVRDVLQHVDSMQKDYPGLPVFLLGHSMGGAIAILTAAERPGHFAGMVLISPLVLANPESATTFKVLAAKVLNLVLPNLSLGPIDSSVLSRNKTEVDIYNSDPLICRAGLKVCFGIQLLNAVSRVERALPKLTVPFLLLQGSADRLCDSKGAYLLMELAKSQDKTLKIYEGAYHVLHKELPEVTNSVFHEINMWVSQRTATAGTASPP
# mutant MGL = target: T3, mutant MGL (Homo sapiens, UniProt Q99685, L169S/L176S); test: MGL ThermoFluor Assay-Mutant
# T3 sequence (Q99685 1-303 L169S/L176S): T2 sequence (Q99685 1-303) with L169S, L176S
# Experimental: The ThermoFluor (TF) assay is a 384-well plate-based binding assay that measures thermal stability of proteins^1,2. […] TF dye used in all experiments was 1,8-ANS (Invitrogen: A-47). Final TF assay conditions used for MGL studies were 0.07 mg/ml of mutant MGL, 100 μM ANS, 200 mM NaCl, 0.001% Tween-20 in 50 mM PIPES (pH=7.0).
# Screening compound plates contained 100% DMSO compound solutions at a single concentration. […] Columns 12 and 24 were used as DMSO reference and contained no compound. […] Following compound dispension, protein and dye solutions were added to achieve the final assay volume of 3 μL.
# Bar-coded assay plates were robotically loaded onto a thermostatically controlled PCR-type thermal block and then heated from 40 to 90° C. degrees at a ramp-rate of 1° C./min for all experiments. Fluorescence was measured by continuous illumination with UV light (Hamamatsu LC6), supplied via fiber optics and filtered through a band-pass filter (380-400 nm; >60D cutoff). Fluorescence emission of the entire 384-well plate was detected by measuring light intensity using a CCD camera (Sensys, Roper Scientific) filtered to detect 500±25 nm, resulting in simultaneous and independent readings of all 384 wells. A single image with 20-sec exposure time was collected at each temperature, and the sum of the pixel intensity in a given area of the assay plate was recorded vs temperature and fit to standard equations to yield the Tm^1. • 1.
# For some experiments, quantitative NMR spectroscopy (qNMR) was used to measure concentration of the initial 100% DMSO compound solutions and, using the same fitting method, qKd values were determined
# [3] = read-out: MGL wild type inh IC50, substrate 4MU-B 10 μM, 37° C.
# [4] = read-out: MGL mutant ThermoFluor Kd, ThermoFluor thermal stability binding assay
# [5] = read-out: MGL mutant ThermoFluor qKd (μM) (using qNMR conc.), ThermoFluor, compound concentration measured by qNMR
# [6] = read-out: MGL wild type inh IC50, 4MU-B substrate 10 μM, 37° C.
# [7] = read-out: MGL mutant ThermoFluor Kd, 0.07 mg/ml, fit of concentration-response of Tm
# [8] = read-out: MGL wild type inh IC50, substrate 4MU-B 10 μM, enzyme 5 nM, 37° C.
# [9] = read-out: MGL mutant ThermoFluor qKd (μM) (using qNMR conc.), compound concentration measured by quantitative NMR (qNMR)
molecule,measurement,setting,value
"5-[2-(4-Chlorophenyl)-1-methyl-vinyl]-1-(2,4-dichloro-phenyl)-4-methyl-1H-pyrazole-3-carboxylic acid [Cpd 1010]",Rat Brain 2AG % VehCntrl (%) @1 μM,MGL,1953%
same,Method 1: peak % reversal,[1],23.4%
same,IC50,[2]; [3],< 0.005 µM
same,Kd,mutant MGL; [4],0.017 µM
same,Kd,mutant MGL; [5],0.04 µM
O=C(c1nccs1)N1CCN(C2CN(C(=O)c3cccc4c3CN(c3ccccc3)CC4)C2)CC1 [Cpd 805],IC50,[2]; [6],2 µM
same,Kd,mutant MGL; [7],6.41 µM
O=C(c1cc2cc(Br)ccc2o1)N1CC(N2CCN(C(=O)c3nccs3)CC2)C1 [Cpd 812],IC50,[2]; [8],2.19 µM
same,Kd,mutant MGL; [7],0.644 µM
Cc1cc2nc(C(=O)N3CC(N4CCN(C(=O)c5nccs5)CC4)C3)cn2cc1Br [Cpd 852],IC50,[2]; [8],8.08 µM
same,Kd,mutant MGL; [5],1.98 µM
O=C(c1ccc(SCc2cccc(C(F)(F)F)c2)cc1)N1CC(N2CCN(C(=O)c3cscn3)CC2)C1 [Cpd 975],IC50,[2]; [6],0.162 µM
same,Kd,mutant MGL; [4],2 µM
O=C(c1ccc(OCc2cccc(Br)n2)cc1)N1CC(N2CCN(C(=O)C(F)(F)F)CC2)C1 [Cpd 984],IC50,[2]; [6],2.5 µM
same,Kd,mutant MGL; [5],1.43 µM
O=C(c1ccc(-c2cccc(C(F)(F)F)c2)c(Cl)c1)N1CC(N2CCN(C(=O)c3cscn3)CC2)C1 [Cpd 1102],Rat Brain 2AG % VehCntrl (%) @1 μM,MGL,878%
same,Method 1: peak % reversal,[1],38%
same,Method 2: peak % reversal,"[1]; mean of individual animal maximum values, up to 180 or 300 min",45.3%
same,Kd,mutant MGL; [7],0.006 µM
Cn1nccc1-c1ccc2cc(C(=O)N3CC(N4CCN(C(=O)c5nccs5)CC4)C3)[nH]c2c1 [Cpd 1241],IC50,[2]; [6],0.46 µM
same,Kd,mutant MGL; [9],0.638 µM
COc1ccc(-c2cccc(C(=O)N3CC(N4CCN(C(=O)c5cscn5)CC4)C3)c2)cc1 [Cpd 1250],IC50,[2]; [3],0.638 µM
same,Kd,mutant MGL; [4],2 µM
O=C(c1nccs1)N1CCN(C2CN(C(=O)c3cccc4nc(-c5ccccc5)[nH]c34)C2)CC1 [Cpd 1255],Rat Brain 2AG % VehCntrl (%) @1 μM,MGL,147%
same,IC50,[2]; [6],0.769 µM
same,Kd,mutant MGL; [7],0.048 µM
O=C(c1nccs1)N1CCN(C2CN(C(=O)c3nn(-c4ccc(Cl)cc4Cl)c4c3CCCC4)C2)CC1 [Cpd 1267],IC50,[2]; [3],1.12 µM
same,Kd,mutant MGL; [5],0.741 µM
O=C(c1nc2cc(-c3ccc(OC(F)(F)F)cc3)ccc2[nH]1)N1CC(N2CCN(C(=O)c3nccs3)CC2)C1 [Cpd 1303],IC50,[2]; [6],5.11 µM
same,Kd,mutant MGL; [9],7.12 µM
O=C(c1ccc(-c2ccc(Cl)cc2)[nH]1)N1CC(N2CCN(C(=O)c3nccs3)CC2)C1 [Cpd 1307],IC50,[2]; [8],8.78 µM
same,Kd,mutant MGL; [4],4.21 µM
O=C(c1ccc[nH]1)N1CCN(C2CN(C(=O)c3nn(-c4ccc(Cl)cc4Cl)c4c3CCCC4)C2)CC1 [Cpd 1309],IC50,[2]; [3],9.36 µM
same,Kd,mutant MGL; [5],6.54 µM
O=C(c1cn2cc(Cl)cc(Br)c2n1)N1CC(N2CCN(C(=O)c3nccs3)CC2)C1 [Cpd 1452],IC50,[2]; [8],> 16.7 µM
same,Kd,mutant MGL; [9],5.42 µM
O=C(c1nccs1)N1CCN(C2CN(C(=O)c3c[nH]nc3-c3ccccc3)C2)CC1 [Cpd 1475],IC50,[2]; [8],> 16.7 µM
same,Kd,mutant MGL; [7],> 31.2 µM
O=C(c1ccccc1)N1CCN(C2CN(C(=O)c3cc4cc(Br)ccc4o3)C2)CC1 [Cpd 1492],IC50,[2]; [8],> 16.7 µM
same,Kd,mutant MGL; [7],18.8 µM
